# From patent US12662451B2, “Chemical compounds and uses thereof” (GLAXOSMITHKLINE INTELLECTUAL PROPERTY (NO.4) LIMITED, priority 2023, dated 2026)
# Counter-ions that a name gives are not always drawn.
# Molecular target: T1, recombinant full-length WRN protein (1-1432) (Homo sapiens, UniProt Q14191)
# T1 construct: recombinant full-length WRN protein (1-1432)
# Experiment: WRN unwinding activity, fluorogenic 384-well assay (Example A)
# Type: biochemical
# Conditions: WRN unwinding activity, 4 hr; Table 2; read-out: 4 hr UNW pIC50 (converted)
# Experimental: Functional WRN unwinding activity can be measured using a fluorogenic plate based 384 well assay configured to measure the separation of labeled double stranded DNA substrate. Compounds were dosed out in neat DMSO with a 1:3 serial dilution scheme. 100 nL of compound was stamped into Greiner low volume black assay plates (Greiner Cat #784076) using the Echo Acoustic Dispenser to generate assay ready plates. All solutions were prepared in assay buffer (25 mM TRIS (pH8.0), 5 mM NaCl, 2 mM MgCl2, 1 mM DTT, 0.05% BSA) for this 10 μL low volume reaction. To prepare the solutions, a 2×WRN Enzyme cocktail was made containing 200 pM of recombinant full-length WRN protein (1-1432). A 2× Substrate cocktail was made to consist of both 200 μM ATP (any ultrapure ATP sample) and 12 nM of the fluorescent quenched labeled double stranded DNA oligomer (IDT Custom synthesis; 5′-5IABkFQ (SEQ ID NO. 1)/GCACTGGCCGTCGTTTTACGGTCGTGACT-3′ (SEQ ID NO. 2): 5′-TTTTTTACTTAACGACGGCCAGTGC (SEQ ID NO. 3)/36-TAMTSP/-3′ (SEQ ID NO. 4)). To start the reaction, 5 μL of assay buffer was added to a single column to serve as the low control. Following this, 5 μL of 2×WRN Enzyme was added in all wells except the buffer low control wells. The reaction plate was covered and incubated at ambient temperature for 4 hours to allow for time dependent inhibition if it existed. After 4 hours, the addition of 5 μL of 2×-ATP/DNA substrate cocktail was added across all wells of the assay plate. This initiated the reaction, as the plate was incubated at ambient temperature for 60 minutes for the unwinding reaction to occur. A 10 mM EDTA solution was prepared and added at 5 μL across the entire plate after 60 minutes to quench the samples for an endpoint measurement. Fluorescent intensity was measured using excitation and emission wavelengths of 525 nm and 598 nm, respectively. High florescent intensity (DMSO with buffer) represents full inhibition of unwinding activity and low florescent intensity (DMSO with enzyme) represents no inhibition of unwinding activity. The potency of the compounds was determined using a four-parameter inhibition model to generate pIC50, Hill Slope, maximum inhibition (see Table 2).
# T1 sequence (Q14191 whole entry): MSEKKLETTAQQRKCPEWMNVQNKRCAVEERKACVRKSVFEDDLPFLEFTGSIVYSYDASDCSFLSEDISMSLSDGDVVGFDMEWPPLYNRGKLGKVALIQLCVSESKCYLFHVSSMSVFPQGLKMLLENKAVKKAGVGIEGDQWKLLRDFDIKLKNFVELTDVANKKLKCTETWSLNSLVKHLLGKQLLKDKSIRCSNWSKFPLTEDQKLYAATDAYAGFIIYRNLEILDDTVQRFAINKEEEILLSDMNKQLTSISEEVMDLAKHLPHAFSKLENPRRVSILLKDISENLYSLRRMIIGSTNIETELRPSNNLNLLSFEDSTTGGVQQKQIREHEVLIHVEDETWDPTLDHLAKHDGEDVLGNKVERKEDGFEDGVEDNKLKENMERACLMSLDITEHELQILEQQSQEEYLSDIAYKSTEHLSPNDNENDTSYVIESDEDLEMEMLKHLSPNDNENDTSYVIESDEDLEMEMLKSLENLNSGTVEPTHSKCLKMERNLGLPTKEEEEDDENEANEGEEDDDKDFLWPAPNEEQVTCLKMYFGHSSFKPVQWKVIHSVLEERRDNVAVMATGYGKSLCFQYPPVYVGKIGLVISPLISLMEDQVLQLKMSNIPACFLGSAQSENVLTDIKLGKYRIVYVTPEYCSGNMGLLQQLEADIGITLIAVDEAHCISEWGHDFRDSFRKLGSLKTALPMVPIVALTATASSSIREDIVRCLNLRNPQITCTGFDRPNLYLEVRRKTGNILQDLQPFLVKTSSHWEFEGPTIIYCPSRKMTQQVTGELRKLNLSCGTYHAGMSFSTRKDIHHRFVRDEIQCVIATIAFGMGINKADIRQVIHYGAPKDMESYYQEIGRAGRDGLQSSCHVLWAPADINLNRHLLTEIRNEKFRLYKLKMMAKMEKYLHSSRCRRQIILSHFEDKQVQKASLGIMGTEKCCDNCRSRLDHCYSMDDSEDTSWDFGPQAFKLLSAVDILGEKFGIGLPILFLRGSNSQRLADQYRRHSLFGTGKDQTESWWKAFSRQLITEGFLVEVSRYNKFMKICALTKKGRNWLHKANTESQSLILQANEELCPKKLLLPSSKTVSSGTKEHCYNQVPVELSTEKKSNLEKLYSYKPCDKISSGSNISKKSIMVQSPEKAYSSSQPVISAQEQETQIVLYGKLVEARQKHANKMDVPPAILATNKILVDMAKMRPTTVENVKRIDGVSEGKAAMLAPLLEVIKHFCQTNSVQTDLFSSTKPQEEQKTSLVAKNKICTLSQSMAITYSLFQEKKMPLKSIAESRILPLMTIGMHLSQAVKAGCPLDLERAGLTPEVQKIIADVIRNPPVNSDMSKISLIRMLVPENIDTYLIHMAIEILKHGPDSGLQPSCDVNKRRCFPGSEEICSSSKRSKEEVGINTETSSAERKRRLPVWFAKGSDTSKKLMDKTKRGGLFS
row,SMILES,IC50 [nM]
1,"Cc1nc2cc(S(=O)(=O)N(C)c3ccc([C@@H]4C[C@H](Oc5ccccc5)C[C@H](C(=O)Nc5ccc(C(F)(F)F)cc5F)[C@H]4C(=O)O)cc3)ccc2n1C (single isomer, unassigned) [Example 153]",3160
2,"Cc1nc2cc(S(=O)(=O)N(C)c3ccc([C@H]4CCC[C@@H](C(=O)Nc5c(F)cc(C(C)C)cc5F)[C@@H]4C(=O)O)cc3)ccc2n1C (single isomer, unassigned) [Example 170]",79.4
3,"Cc1nc2cc(S(=O)(=O)N(C)c3ccc([C@H]4CCC[C@@H](COc5ccc(C(F)(F)F)cc5)[C@@H]4C(=O)O)cc3)cc([C@@H]3CCCNC3)c2n1C (single isomer, unassigned) [Example 209, hydrochloride]",2000
4,"Cc1nc2cc(S(=O)(=O)Nc3ccc([C@H]4CCC[C@@H](C(=O)Nc5ccc(C(F)(F)F)cc5F)[C@@H]4C(=O)O)cc3)ccc2n1C (single isomer, unassigned) [Example 223]",158
5,"O=C(O)[C@@H]1[C@@H](c2ccc(C3CCS(=O)(=O)C3)cc2)CCC[C@H]1C(=O)Nc1ccc(C(F)(F)F)cc1F (single isomer, unassigned) [Example 231, (1R,2S,6R)-2-(4-((R*)-1,1-dioxidotetrahydrothiophen-3-yl)phenyl)-6-((2-fluoro-4-(trifluoromethyl)phenyl)carbamoyl)cyclohexane-1-carboxylic acid]",316
6,"Cc1nc2cc(S(=O)(=O)N3CCOc4cc([C@@H]5CCC[C@H](C(=O)Nc6ccc(C(F)(F)F)cc6F)[C@H]5C(=O)O)ccc43)ccc2n1C (single isomer, unassigned) [Example 242]",794
7,"Cc1nc2cc(S(=O)(=O)N(C)c3ccc([C@@H]4CNC[C@H](C(=O)Nc5ccc(C(F)(F)F)cc5F)[C@H]4C(=O)O)cc3)ccc2n1C (single isomer, unassigned) [Example 307]",631
8,"N#Cc1cnnc(-c2ccc(C3CCCC(C(=O)Nc4ccc(C(F)(F)F)cc4F)[C@@H]3C(=O)O)cc2)c1 (stereo in doubt) [Example 39, (1R,2R,6S)-2-(4-(5-cyanopyridazin-3-yl)phenyl)-6-((2-fluoro-4-(trifluoromethyl)phenyl)carbamoyl)cyclohe xane-1-carboxylic acid]",2000
9,"N#Cc1ccncc1-c1ccc(C2CCCC(C(=O)Nc3ccc(C(F)(F)F)cc3F)[C@@H]2C(=O)O)cc1 (stereo in doubt) [Example 49, (1R,2R,6S)-2-(4-(4-cyanopyridin-3-yl)phenyl)-6-((2-fluoro-4-(trifluoromethyl)phenyl)carbamoyl)cyclohe xane-1-carboxylic acid]",1000
10,"Cc1nc2cc(S(=O)(=O)N(C)c3ccc([C@@H]4C[C@H](OCC5CCC5)C[C@H](C(=O)Nc5ccc(C(F)(F)F)cc5F)[C@H]4C(=O)O)cc3)ccc2n1C (stereo in doubt) [Example 155, rel-(1R,2R,4R,6S)-4-(cyclobutylmethoxy)-2-((2-fluoro-4-(trifluoromethyl)phenyl)carbamoyl)-6-(4-((N,1,2-trimethyl-1H-benzo[d]imidazole)-5-sulfonamido)phenyl)cyclohexane-1-carboxylic acid]",794
11,"CC(=O)N1C[C@H](C(=O)Nc2ccc(C(F)(F)F)cc2F)[C@@H](C(=O)O)[C@H](c2ccc(N(C)S(=O)(=O)c3ccc4c(c3)nc(C)n4C)cc2)C1 (stereo in doubt) [Example 309, rel-(3R,4S,5R)-1-acetyl-3-((2-fluoro-4-(trifluoromethyl)phenyl)carbamoyl)-5-(4-((N,1,2-trimethyl-1H-benzo[d]imidazole)-5-sulfonamido)phenyl)piperidine-4-carboxylic acid]",200
12,"Cc1nc2cc(S(=O)(=O)N(C)c3ccc([C@@H]4C[C@H](OC5CCC5)C[C@H](C(=O)Nc5ccc(C(F)(F)F)cc5F)[C@H]4C(=O)O)cc3)ccc2n1C (stereo in doubt) [Example 326, rel-(1R,2R,4R,6S)-4-cyclobutoxy-2-((2-fluoro-4-(trifluoromethyl)phenyl)carbamoyl)-6-(4-((N,1,2-trimethyl-1H-benzo[d]imidazole)-5-sulfonamido)phenyl)cyclohexane-1-carboxylic acid]",631
13,"Cc1nc2cc(S(=O)(=O)N(C)c3ccc([C@@H]4C[C@@H](NCC(F)(F)F)C[C@H](C(=O)Nc5ccc(C(F)(F)F)cc5F)[C@H]4C(=O)O)cc3)ccc2n1C (stereo in doubt) [Example 335, rel-(1R,2R,4S,6S)-2-((2-fluoro-4-(trifluoromethyl)phenyl)carbamoyl)-4-((2,2,2-trifluoroethyl)amino)-6-(4-((N,1,2-trimethyl-1H-benzo[d]imidazole)-5-sulfonamido)phenyl)cyclohexane-1-carboxylic acid]",2510
14,"Cc1cc(N(C)S(=O)(=O)c2ccc3c(c2)nc(C)n3C)ccc1[C@@H]1CCC[C@H](C(=O)Nc2ccc(C(F)(F)F)cc2F)[C@H]1C(=O)O (stereo in doubt) [Example 385, rel-(1R,2R,6S)-2-((2-fluoro-4-(trifluoromethyl)phenyl)carbamoyl)-6-(2-methyl-4-((N,1,2-trimethyl-1H-benzo[d]imidazole)-5-sulfonamido)phenyl)cyclohexane-1-carboxylic acid]",1260

# Continued, values first:
row,IC50 [nM],SMILES
1,100,"CO[C@@H]1C[C@H](c2ccc(N(C)S(=O)(=O)c3ccc4c(c3)nc(C)n4C)cc2)[C@@H](C(=O)O)[C@H](C(=O)Nc2ccc(C(F)(F)F)cc2F)C1 (single isomer, unassigned) [Example 146]"
2,7940,"Cc1nc2cc(S(=O)(=O)N(C)c3ccc([C@H]4CCC[C@@H](C(=O)Nc5ccc(C(F)(F)F)cn5)[C@@H]4C(=O)O)cc3)ccc2n1C (single isomer, unassigned) [Example 169]"
3,251,"CN[C@@H]1C[C@H](C(=O)Nc2ccc(C(F)(F)F)cc2F)[C@@H](C(=O)O)[C@H](c2ccc(N(C)S(=O)(=O)c3ccc4c(c3)nc(C)n4C)cc2)C1 (single isomer, unassigned) [Example 257]"
4,2510,"CC(=O)N[C@H]1C[C@H](COc2ccc(C(F)(F)F)cc2)[C@@H](C(=O)O)[C@H](c2ccc(N(C)S(=O)(=O)c3ccc4c(c3)nc(C)n4C)cc2)C1 (single isomer, unassigned) [Example 297]"
5,3980,"CCCO[C@@H]1C[C@H](C(=O)Nc2ccc(C(F)(F)F)cc2F)[C@@H](C(=O)O)[C@H](c2ccc(N(C)S(=O)(=O)c3ccc4c(c3)nc(C)n4C)cc2)C1 (stereo in doubt) [Example 150, rel-(1R,2R,4R,6S)-2-((2-fluoro-4-(trifluoromethyl)phenyl)carbamoyl)-4-propoxy-6-(4-((N,1,2-trimethyl-1H-benzo[d]imidazole)-5-sulfonamido)phenyl)cyclohexane-1-carboxylic acid]"
6,63.1,"Cc1nc2cc(S(=O)(=O)N(C)c3ccc([C@@H]4C[C@H](N(C)C)C[C@H](C(=O)Nc5ccc(C(F)(F)F)cc5F)[C@H]4C(=O)O)cc3)ccc2n1C (stereo in doubt) [Example 252, rel-(1R,2R,4R,6S)-4-(dimethylamino)-2-((2-fluoro-4-(trifluoromethyl)phenyl)carbamoyl)-6-(4-((N,1,2-trimethyl-1H-benzo[d]imidazole)-5-sulfonamido)phenyl)cyclohexane-1-carboxylic acid]"
7,31.6,"CC(=O)N(C)[C@H]1C[C@H](C(=O)Nc2ccc(C(F)(F)F)cc2F)[C@@H](C(=O)O)[C@H](c2ccc(N(C)S(=O)(=O)c3ccc4c(c3)nc(C)n4C)cc2)C1 (stereo in doubt) [Example 293, rel-(1R,2R,4S,6S)-2-((2-fluoro-4-(trifluoromethyl)phenyl)carbamoyl)-4-(N-methylacetamido)-6-(4-((N,1,2-trimethyl-1H-benzo[d]imidazole)-5-sulfonamido)phenyl)cyclohexane-1-carboxylic acid]"
8,63.1,"Cc1nc2cc(S(=O)(=O)N(C)c3ccc([C@@H]4C[C@@H](N)C[C@H](C(=O)Nc5ccc(C(F)(F)F)cc5F)[C@H]4C(=O)O)cc3)ccc2n1C (stereo in doubt) [Example 299, rel-(1R,2R,4S,6S)-4-amino-2-((2-fluoro-4-(trifluoromethyl)phenyl)carbamoyl)-6-(4-((N,1,2-trimethyl-1H-benzo[d]imidazole)-5-sulfonamido)phenyl)cyclohexane-1-carboxylic acid]"
9,126,"Cc1nc2cc(S(=O)(=O)N(C)c3ccc([C@@H]4C[C@H](N)C[C@H](C(=O)Nc5ccc(C(F)(F)F)cc5F)[C@H]4C(=O)O)cc3)ccc2n1C (stereo in doubt) [Example 302, rel-(1R,2R,4R,6S)-4-amino-2-((2-fluoro-4-(trifluoromethyl)phenyl)carbamoyl)-6-(4-((N,1,2-trimethyl-1H-benzo[d]imidazole)-5-sulfonamido)phenyl)cyclohexane-1-carboxylic acid]"
